{
  "source": "ChEMBL document CHEMBL1135083",
  "about": "“A designed P1 cysteine mimetic for covalent and non-covalent inhibitors of HCV NS3 protease” (Bioorg Med Chem Lett, 2002)",
  "note": "Numbered stars: 1 amine (or outer) side, 2 acyl side, 3 side chain; on linkers, the order of the positions; unused ones are H or OH. Square brackets hold non-standard residues; d marks the D form. Peptide text beside a SMILES is read from it. * marks the point of attachment. Dip = N[C@H](C(=O)O)C(c1ccccc1)c1ccccc1; X4 = O=C(C(=O)[*:2])[C@H](CC(F)F)N[*:1]; X3 = O=C(c1nc2ccccc2s1)[C@H](CC(F)F)N*; X6 = O=C(c1nc2ccccc2o1)[C@H](CC(F)F)N*; Abu(4,4-F2) = N[C@@H](CC(F)F)C(=O)O; X5 = O=C([C@@H](CC(F)F)N[*:1])[*:2]; X1 = O=C(c1nccs1)[C@H](CC(F)F)N*; X2 = COC(=O)C(=O)[C@H](CC(F)F)N*; X7 = O=C(O)C(=O)[C@H](CC(F)F)N*; Cha = N[C@@H](CC1CCCCC1)C(=O)O; AllylGly = C=CC[C@H](N)C(=O)O; Abu = CC[C@H](N)C(=O)O; NHBn = c1ccc(CN*)cc1",
  "data": [
    {"molecular_target": "Hepatitis C virus serine protease, NS3/NS4A (Hepatitis C virus, UniProt A3EZI9+D2K2A8)", "sequence (D2K2A8 whole entry)": "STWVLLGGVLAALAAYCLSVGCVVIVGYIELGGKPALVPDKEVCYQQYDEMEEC", "sequence (A3EZI9 whole entry)": "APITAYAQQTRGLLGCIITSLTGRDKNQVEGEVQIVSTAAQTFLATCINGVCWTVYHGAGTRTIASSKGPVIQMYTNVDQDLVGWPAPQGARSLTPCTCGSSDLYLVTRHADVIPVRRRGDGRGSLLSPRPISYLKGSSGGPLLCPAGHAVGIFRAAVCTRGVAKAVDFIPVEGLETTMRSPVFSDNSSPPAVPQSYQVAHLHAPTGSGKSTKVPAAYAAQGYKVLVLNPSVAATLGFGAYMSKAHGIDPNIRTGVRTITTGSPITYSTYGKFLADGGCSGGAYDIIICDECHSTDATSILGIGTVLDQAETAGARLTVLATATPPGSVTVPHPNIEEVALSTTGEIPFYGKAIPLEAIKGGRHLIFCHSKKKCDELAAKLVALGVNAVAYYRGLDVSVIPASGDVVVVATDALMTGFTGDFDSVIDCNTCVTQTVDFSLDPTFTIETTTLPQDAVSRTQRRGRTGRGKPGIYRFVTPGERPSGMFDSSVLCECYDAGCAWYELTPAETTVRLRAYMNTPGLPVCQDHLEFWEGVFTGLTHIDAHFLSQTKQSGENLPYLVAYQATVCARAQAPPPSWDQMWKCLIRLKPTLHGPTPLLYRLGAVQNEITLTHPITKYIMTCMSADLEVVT", "assay": "Inhibition of hepatitis C virus (HCV) NS3/NS4A serine protease", "format": "protein-complex assay, Hepacivirus hominis", "units": {"Ki": "nM"}, "values": [
      {"compound": "C=CC[C@@H](C=O)NC(=O)[C@H](CC1CCCCC1)NC(=O)[C@H](CCC(=O)O)NC(=O)[C@@H](NC(=O)[C@H](CCC(=O)O)NC(=O)[C@H](CC(=O)O)NC(C)=O)C(c1ccccc1)c1ccccc1", "note": "(Ac-DE[Dip]E[Cha][AllylGly]-aldehyde)", "Ki": 7},
      {"compound": "CC(=O)N[C@@H](CC(=O)O)C(=O)N[C@@H](CCC(=O)O)C(=O)N[C@H](C(=O)N[C@@H](CCC(=O)O)C(=O)N[C@@H](CC1CCCCC1)C(=O)N[C@@H](CC(F)F)C(=O)C(=O)NCc1ccccc1)C(c1ccccc1)c1ccccc1", "note": "(Ac-DE[Dip]E[Cha][X4]-NHBn)", "Ki": 1.5},
      {"compound": "CC[C@H](NC(=O)[C@H](CC1CCCCC1)NC(=O)[C@H](CCC(=O)O)NC(=O)[C@@H](NC(=O)[C@H](CCC(=O)O)NC(=O)[C@H](CC(=O)O)NC(C)=O)C(c1ccccc1)c1ccccc1)C(=O)O", "note": "(Ac-DE[Dip]E[Cha][Abu]-OH)", "Ki": 700},
      {"compound": "C=CC[C@H](NC(=O)[C@H](CC1CCCCC1)NC(=O)[C@H](CCC(=O)O)NC(=O)[C@@H](NC(=O)[C@H](CCC(=O)O)NC(=O)[C@H](CC(=O)O)NC(C)=O)C(c1ccccc1)c1ccccc1)C(=O)O", "note": "(Ac-DE[Dip]E[Cha][AllylGly]-OH)", "Ki": 100},
      {"compound": "CC(=O)N[C@@H](CC(=O)O)C(=O)N[C@@H](CCC(=O)O)C(=O)N[C@H](C(=O)N[C@@H](CCC(=O)O)C(=O)N[C@@H](CC1CCCCC1)C(=O)N[C@@H](CC(F)F)C(=O)C(=O)O)C(c1ccccc1)c1ccccc1", "note": "(Ac-DE[Dip]E[Cha]-X7)", "Ki": 0.01},
      {"compound": "CC(=O)N[C@@H](CC(=O)O)C(=O)N[C@@H](CCC(=O)O)C(=O)N[C@H](C(=O)N[C@@H](CCC(=O)O)C(=O)N[C@@H](CC1CCCCC1)C(=O)N[C@H](CC(F)F)C(=O)O)C(c1ccccc1)c1ccccc1", "note": "(Ac-DE[Dip]E[Cha][X5]-OH)", "Ki": 640},
      {"compound": "CC(=O)N[C@@H](CC(=O)O)C(=O)N[C@@H](CCC(=O)O)C(=O)N[C@H](C(=O)N[C@@H](CCC(=O)O)C(=O)N[C@@H](CC1CCCCC1)C(=O)N[C@@H](CC(F)F)C(=O)c1nccs1)C(c1ccccc1)c1ccccc1", "note": "(Ac-DE[Dip]E[Cha]-X1)", "Ki": 1500},
      {"compound": "COC(=O)C(=O)[C@H](CC(F)F)NC(=O)[C@H](CC1CCCCC1)NC(=O)[C@H](CCC(=O)O)NC(=O)[C@@H](NC(=O)[C@H](CCC(=O)O)NC(=O)[C@H](CC(=O)O)NC(C)=O)C(c1ccccc1)c1ccccc1", "note": "(Ac-DE[Dip]E[Cha]-X2)", "Ki": 2},
      {"compound": "CC(=O)N[C@@H](CC(=O)O)C(=O)N[C@@H](CCC(=O)O)C(=O)N[C@H](C(=O)N[C@@H](CCC(=O)O)C(=O)N[C@@H](CC1CCCCC1)C(=O)N[C@@H](CC(F)F)C(=O)c1nc2ccccc2s1)C(c1ccccc1)c1ccccc1", "note": "(Ac-DE[Dip]E[Cha]-X3)", "Ki": 150},
      {"compound": "CC(=O)N[C@@H](CC(=O)O)C(=O)N[C@@H](CCC(=O)O)C(=O)N[C@H](C(=O)N[C@@H](CCC(=O)O)C(=O)N[C@@H](CC1CCCCC1)C(=O)N[C@H](C=O)CC(F)F)C(c1ccccc1)c1ccccc1", "note": "(Ac-DE[Dip]E[Cha][Abu(4,4-F2)]-aldehyde)", "Ki": 0.5},
      {"compound": "CC(=O)N[C@@H](CC(=O)O)C(=O)N[C@@H](CCC(=O)O)C(=O)N[C@H](C(=O)N[C@@H](CCC(=O)O)C(=O)N[C@@H](CC1CCCCC1)C(=O)N[C@@H](CC(F)F)C(=O)c1nc2ccccc2o1)C(c1ccccc1)c1ccccc1", "note": "(Ac-DE[Dip]E[Cha]-X6)", "Ki": 600},
      {"compound": "CC(=O)N[C@@H](CC(=O)O)C(=O)N[C@@H](CCC(=O)O)C(=O)N[C@H](C(=O)N[C@@H](CCC(=O)O)C(=O)N[C@@H](CC1CCCCC1)C(=O)N[C@@H](CS)C(=O)O)C(c1ccccc1)c1ccccc1", "note": "(Ac-DE[Dip]E[Cha]C-OH)", "Ki": 40},
      {"compound": "CC(=O)N[C@@H](CC(=O)O)C(=O)N[C@@H](CCC(=O)O)C(=O)N[C@H](C(=O)N[C@@H](CCC(=O)O)C(=O)N[C@@H](CC1CCCCC1)C(=O)N[C@@H](CC(F)F)C(=O)O)C(c1ccccc1)c1ccccc1", "note": "(Ac-DE[Dip]E[Cha][Abu(4,4-F2)]-OH)", "Ki": 30}
    ]}
  ]
}
